Test results as given in patent US12427196B2, “Macromolecular prodrugs for light-emitting diodes and uses thereof” (Children's Medical Center Corporation, priority 2020, dated 2025).

Experiments:
rat footpad = experiment: Phototriggered local anesthesia (nerve block) after rat footpad injection, Touch Test neurobehavioral testing; type: in vivo; settings: irradiance 0 W/cm^2, irradiation duration 0 min (no irradiation)
Experimental: The effectiveness of light-triggered anesthesia using P407-CM-T was assessed in vivo after footpad injection in the rat (Table 1);^17, 28-32 this model was selected because it was anticipated that 400 nm light would not penetrate deeply into tissue.^33
A hundred microliters of 20 wt % P407-CM-T were injected into the plantar aspect of the rat hind paw. […] Irradiation of the site of administration immediately after injection with a 400 nm LED at 200 mW/cm^2 for two minutes caused local anesthesia lasting 19.5±4.5 min (FIGS. 5A-5B). Local anesthesia was prolonged to 36.5±8.9 min (FIG. 5B) by increasing the irradiance to 300 mW/cm^2 also for 2 minutes (p<0.05 compared to 200 mW/cm^2). Extending the irradiation time to five minutes at 300 mW/cm^2 further extended local anesthesia to 66.7±24 min (p<0.05 compared to 300 mW/cm^2 for 2 min, FIG. 5B).
It would be important for a light-triggerable local anesthetic system to be triggered repeatedly, so as to be able to treat pain over an extended period. To assess the ability of P407-CM-T to provide repeated on-demand local anesthesia, animals were injected in the footpad with 0.1 mL of 20 wt % P407-CM-T (FIG. 4D). […] The animal was then irradiated at the site of injection with 400 nm light at 300 mW/cm^2 for 2 min. […]

C2C12 cells = experiment: Cytotoxicity, MTS cell proliferation assay; type: cell-based; settings: 24 h
Experimental: (§1) Before testing the material in vivo, test materials were evaluated in vitro with C2C12 and PC12 cells to assess cytotoxicity to muscle and nerve cells respectively. Different compounds were directly added into the cell culture media (1 mg/mL, 0.33 mg/mL and 0.11 mg/mL) and incubated in the media bathing the cells (i.e. in direct contact with them) in conventional cell culture wells. After 24 h, cell viabilities were evaluated with the MTS assay, and their survival expressed as percentages of results in untreated cells. […] Due to the high molecular weight of the polymer-containing samples, their molar concentrations were perforce lower than that of the small molecule tetracaine. It would not be practical to culture cells in media containing the polymer concentration to be used in vivo (20 wt %), which would be very viscous. Therefore, test materials were placed in Transwell® inserts such that they were in continuity with the cell culture media.
(§2) Cytotoxicity analysis. For the “direct contact” experiments, the cells were incubated in 48-well plates with concentration of formulations of 1, 0.33, 0.11 mg/mL in the media for all samples. For the “indirect contact” experiments, the cells were incubated in 24-well plates with a transwell in each well, in which 50 μL of tetracaine (0.5% wt %) or P407 (20% wt %) or P407-CM-T (20% wt %) was applied. After 24 h, the cell viabilities were evaluated with MTS assay as percentages of the control.

PC12 cells = experiment: Cytotoxicity, MTS cell proliferation assay; type: cell-based; settings: 24 h
Experimental: as §1, §2

With `CCCCNc1ccc(C(=O)OCCN(C)C)cc1` [Tetracaine, tetracaine] the “Duration of Block” value (rat footpad) was 28.6 ± 7.1 min, the “Cell viability (MTS)” value (C2C12 cells; C2C12, Transwell inserts, tetracaine 0.5% wt %, P407 20% wt %, P407-CM-T 20% wt %) was “greatly reduced cell survival” and the “Cytotoxicity (cell survival, MTS)” value (C2C12 cells; C2C12, direct contact, 1, 0.33 and 0.11 mg/mL in media) was “high cytotoxicity”. For the same molecule, the “Cell viability (MTS)” value (PC12 cells; PC12, Transwell inserts, tetracaine 0.5% wt %, P407 20% wt %, P407-CM-T 20% wt %) was “greatly reduced cell survival” and the “Cytotoxicity (cell survival, MTS)” value (PC12 cells; PC12, direct contact, 1, 0.33 and 0.11 mg/mL in media) was “high cytotoxicity”.
